Assay results reported in PubChem BioAssay (NCI).
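Method: 48-hour compound exposure of cells in 96-well plates, five concentrations, linear interpolation of endpoints. GI50 marks 50% less growth. TGI: total growth inhibition.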

How the values were obtained:
Assay in all cases: NCI anticancer screen, dose series, 48 h
SNB-75 CNS = system: SNB-75 CNS
MDA-MB-435 = system: MDA-MB-435
RPMI-8226 leukemia = system: RPMI-8226 leukemia
786-0 renal = system: 786-0 renal
HS 578T breast = system: HS 578T breast
NCI-H460 lung = system: NCI-H460 lung
HCC-2998 colon = system: HCC-2998 colon
OVCAR-5 ovarian = system: OVCAR-5 ovarian
K-562 leukemia = system: K-562 leukemia
SK-MEL-2 melanoma = system: SK-MEL-2 melanoma

SMILES | GI50 (SNB-75 CNS) [µM] | TGI (SNB-75 CNS) [µM] | GI50 (MDA-MB-435) [µM] | TGI (MDA-MB-435) [µM] | GI50 (RPMI-8226 leukemia) [µM] | TGI (RPMI-8226 leukemia) [µM] | GI50 (786-0 renal) [µM] | TGI (786-0 renal) [µM] | GI50 (HS 578T breast) [µM] | TGI (HS 578T breast) [µM] | GI50 (NCI-H460 lung) [µM] | TGI (NCI-H460 lung) [µM] | GI50 (HCC-2998 colon) [µM] | TGI (HCC-2998 colon) [µM] | GI50 (OVCAR-5 ovarian) [µM] | TGI (OVCAR-5 ovarian) [µM] | GI50 (K-562 leukemia) [µM] | TGI (K-562 leukemia) [µM] | GI50 (SK-MEL-2 melanoma) [µM] | TGI (SK-MEL-2 melanoma) [µM]
O=C(Nc1ccc(Cl)cc1)c1cccc(NC2=C(Cl)C(=O)N(Cc3ccccc3)C2=O)c1 | 8.88 | 25.1 | 23.9 | > 100 | 4.67 | 18.6 | 7.83 | 20.9 | 13.2 | 46.3 | 15.2 | 35 | 3.83 | 20 | 13.4 | 36.6 | 5.83 | 28.3 | 14.9 | 41.5
O=C1OC(O)[C@@H]2[C@H]1[C@H]1CC[C@@H]2O1 (some centres undefined) | 45.3 | > 100 | > 100 | > 100 | 49.2 | > 100 | > 100 | > 100 | > 100 | > 100 | > 100 | > 100 | 2.19 | 4.41 | 57.3 | > 100 | > 100 | > 100 | 39 | > 82.4
Cn1cnc([N+](=O)[O-])c1S(=O)(=O)Oc1cccc2ccccc12 | 9.55 | 32.3 | 2.31 | 7.21 | 2.68 | 6.69 | 14.4 | 29.3 | 26.5 | > 100 | 14.7 | 36 | 13.1 | 26.6 | 7.55 | 27.8 | 1.6 | 8.63 | 4.42 | 20
CCN(CC)c1ccc(-c2cc(-c3cc(OC)c(OC)c(OC)c3)nc(N3CCOCC3)c2C#N)cc1 | 1.02 | 12 | 1.32 | 13.7 | 0.0387 | 44.7 | 1.9 | 9.94 | 0.507 | 12.2 | 0.412 | 5.73 | 1.97 | 11.1 | 1.42 | > 68.2 | 1 | > 19.9 | 3.15 | > 26.2
COc1cc(NCc2ccc3oc(=O)c(-c4ccccc4)nc3c2)cc(OC)c1OC |  | > 10 |  | > 10 |  | > 10 |  | > 10 |  | > 10 |  | > 10 |  | > 10 |  | > 10 |  | > 10 |  | > 10
C=C1C(=O)O[C@H]2[C@H]1CC/C(COC(=O)c1c[nH]c3ccccc13)=C\CC[C@@]1(C)O[C@@H]21 | 0.207 | 0.923 | 0.242 | 0.654 | 0.0404 | 0.281 | 0.326 | 1.13 | 0.613 | 6.83 | 1.1 | 3.18 | 0.32 | 1.08 | 0.405 | 2.1 | 0.279 | 1.62 | 0.239 | 0.612
COc1cc(OC)cc(-c2cc(=O)c3c(OC)c(OC)c(OC)c(OC)c3o2)c1 |  | > 100 |  | > 100 |  | > 100 |  | > 100 |  | 90.6 |  | > 100 |  | > 100 |  | > 100 |  | > 100 |  | 55.1
CCCCCCCC(=O)SCC/C=C/[C@@H]1CC(=O)NCc2cc(ccn2)C2=N[C@@](C)(CS2)C(=O)N[C@@H](C(C)C)C(=O)O1 | 0.0079 | > 33.3 | 0.0115 |  | 0.116 | > 33.3 | 0.0291 | > 33.3 | 0.00745 | 0.203 | 0.00754 | > 11.3 | 0.0256 | 0.245 | < 0.0113 | > 33.3 | 0.0248 | > 33.3 | 0.015 | 0.595
CN(C(=O)c1ccc(C(F)(F)F)cc1)c1ccc(Oc2ccc3c(c2)cc(C(=O)N2CCN(Cc4ccc(OC(F)F)cc4)CC2)n3C)nc1 | 11.7 | > 84 | 3.73 | > 100 | 0.156 | > 100 | > 100 | > 100 | > 91.5 | > 100 | 3.25 | > 100 | > 100 | > 100 | > 100 | > 100 | < 0.01 | > 100 | 11.9 | > 100
O=c1c2sccc2n(CC2COc3ccccc3O2)c(=O)n1O (centres undefined) | 3.81 | 56 | 23.9 | > 100 | 3.9 | 24.5 | 41.7 | > 100 | 15.1 | > 100 | 4.66 | 41.8 | 7.6 | > 100 | 40 | > 100 | 4.1 | > 100 | 23.5 | 80.7
